Test system: H4 APP751 SWE clone 8.20 (H4-8Sw cells), Aβ42 formation
Assay: Inhibition of Aβ42 formation in cultured cells
Assay type: cell-based
Settings: H4-8Sw cells (H4 neuroglioma stably expressing Swedish mutant APP751), 19 hours incubation, mean±SD, n=2
Method: Compounds were assayed for Aβ42 inhibition in cells using H4 APP751 SWE clone 8.20, developed at Bristol-Myers Squibb, an H4 neuroglioma cell line stably expressing the Swedish mutant of APP751. Cells were maintained in log phase through twice weekly passage at a 1:20 dilution. For IC50 determinations, 30 μL cells (1.5×10^4 cells/well) in DMEM media containing 0.0125% BSA (Sigma A8412) were plated directly into 384-well compound plates (Costar 3709) containing 0.1 μL serially diluted compound in DMSO. Following incubation for 19 hours in 5% CO2 at 37° C., plates were briefly centrifuged (1000 rpm, 5 min). Antibody cocktails were freshly prepared by dilution into 40 mM Tris-HCl (pH 7.4) with 0.2% BSA and added to assay plates. For Aβ42 measurements, antibodies specific for the Aβ42 neoepitope (565, developed at Bristol-Myers Squibb; conjugated to the Wallac reagent (Perkin Elmer)) and the N-terminal sequence of Aβ peptide (26D6, developed at SIBIA/Bristol-Myers Squibb; conjugated to APC (Perkin Elmer)) were mixed and 20 μL of the mixture was added to each well of the incubated cell plate yielding a final concentration of 0.8 ng/well 565 and 75 ng/well 26D6. […] Signal was determined using a Viewlux counter (Perkin Elmer) and IC50 values determined using curve fitting in CurveMaster (Excel Fit based).

- IC50: 0.12 ± 0.01 nM
Structure (SMILES): [2H]c1nc(-c2ccc(CN([C@H](CCC(F)(F)F)C(N)=O)S(=O)(=O)c3ccc(Cl)cc3)c(F)c2)no1 [Example 1, (2R)-2-[[(4-Chlorophenyl)sulfonyl][[2-fluoro-4-(1,2,4-oxadiazol-5-deutero-3-yl)phenyl]methyl]amino]-5,5,5-trifluoropentanamide]

From US8044077B2, “Alpha-(N-sulfonamido)acetamide compounds incorporating deuterium as inhibitors of beta amyloid peptide production” (Bristol-Myers Squibb Company, priority 2009, dated 2011)
